According to patent US9347934B2, “Assays for identifying compounds that modulate bitter taste” (CHROMOCELL CORPORATION, priority 2011, dated 2016):

Key:
Assay type in all cases: cell-based
TAS2R44 = molecular target: T1, TAS2R44 (Homo sapiens, UniProt P59538); test: Calcium fluorescence functional assay, TAS2R44 cell line; conditions: for TAS2R44 bitter taste receptor activity (changes in intracellular calcium): 20 mM tastant, cell line expressing human TAS2R44 and mouse Gα15
T1 construct: expressed in transfected cells
T1 sequence (P59538 1-309): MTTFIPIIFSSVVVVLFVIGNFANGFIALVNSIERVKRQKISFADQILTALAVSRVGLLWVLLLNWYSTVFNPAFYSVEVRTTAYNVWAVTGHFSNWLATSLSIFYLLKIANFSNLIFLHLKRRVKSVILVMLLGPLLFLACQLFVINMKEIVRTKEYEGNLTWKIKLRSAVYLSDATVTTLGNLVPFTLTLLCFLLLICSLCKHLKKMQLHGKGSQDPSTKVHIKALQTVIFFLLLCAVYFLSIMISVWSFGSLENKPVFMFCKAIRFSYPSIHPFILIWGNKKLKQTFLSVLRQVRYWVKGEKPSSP
Method: (§1) Accordingly, each cell line of the panel expressed a human bitter taste receptor and mouse Gα15 signaling protein.
(§2) Probenecid was not included in the load solution.
(§3) After dye loading, cell plates were placed in a fluorescent plate reader (e.g., FDSS6000 (Hamamatsu, Japan)) and receptor stimulation was measured by adding 50 ul of 3× concentrated ligand/agonist stock. Fluorescence was monitored continuously for 10 s before agonist addition and for 100-250 s after stimulation with agonist.
(§4) Receptor Activation is defined as follows: % Activation=[((Maximum signal fluorescence−Minimum signal fluorescence)−(Maximum control fluorescence−Minimum control fluorescence))/(Maximum buffer fluorescence−Minimum buffer fluorescence)]*100 Functional Response=[(Maximum signal fluorescence−Minimum signal fluorescence)−(Maximum control fluorescence−Minimum control fluorescence)] • Signal Fluorescence: refers to the change in fluorescence seen with addition of ligand • Control fluorescence: refers to the change in fluorescence seen with addition of buffer (negative control) • Calcium signals from ligand and control were normalized to the basal fluorescence of the cells prior to the stimulation.
(§5) A concentration analysis was performed and EC50 values were calculated by nonlinear regression using the formula: Y=Bottom+(Top-Bottom)/(1+10^((Log EC50-X)*Hill Slope)), X=log of dose or concentration, Y=Response (increasing as X increases), Top=maximum signal, Bottom=minimum signal.

TAS2R55 = molecular target: T2, TAS2R55 (Homo sapiens, UniProt Q7RTR8); test: Calcium fluorescence functional assay, TAS2R55 cell line; conditions: 20 mM tastant; cell line expressing human TAS2R55 and mouse Gα15
T2 construct: expressed in transfected cells
T2 sequence (Q7RTR8 1-314): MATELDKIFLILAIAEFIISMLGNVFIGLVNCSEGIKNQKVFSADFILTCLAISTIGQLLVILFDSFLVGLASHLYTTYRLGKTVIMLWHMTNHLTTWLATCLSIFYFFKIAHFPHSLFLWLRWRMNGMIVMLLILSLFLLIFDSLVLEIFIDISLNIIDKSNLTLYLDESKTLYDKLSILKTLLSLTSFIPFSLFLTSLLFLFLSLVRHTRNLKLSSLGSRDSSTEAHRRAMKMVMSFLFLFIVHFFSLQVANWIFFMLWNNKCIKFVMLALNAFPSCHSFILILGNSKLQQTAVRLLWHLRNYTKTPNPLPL
Method: as §1, §2, §3, §4, §5

TAS2R4 = molecular target: T3, TAS2R4 (Homo sapiens, UniProt Q9NYW5); test: Calcium fluorescence functional assay, TAS2R4 cell line; conditions: for TAS2R4 bitter taste receptor activity (changes in intracellular calcium): 20 mM tastant, cell line expressing human TAS2R4 and mouse Gα15
T3 construct: expressed in transfected cells
T3 sequence (Q9NYW5 1-299): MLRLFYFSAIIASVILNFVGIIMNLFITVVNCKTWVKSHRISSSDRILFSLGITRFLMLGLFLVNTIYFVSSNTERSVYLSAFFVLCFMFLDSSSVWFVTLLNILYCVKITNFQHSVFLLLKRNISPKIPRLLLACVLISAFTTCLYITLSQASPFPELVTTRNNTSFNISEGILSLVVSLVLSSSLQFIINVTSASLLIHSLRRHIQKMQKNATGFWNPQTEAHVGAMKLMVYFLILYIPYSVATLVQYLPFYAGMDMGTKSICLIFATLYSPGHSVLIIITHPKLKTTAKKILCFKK
Method: as §1, §2, §3, §4, §5

TAS2R16 = molecular target: T4, TAS2R16 (Homo sapiens, UniProt Q9NYV7); test: Calcium fluorescence functional assay, TAS2R16 cell line; conditions: 20 mM tastant; cell line expressing human TAS2R16 and mouse Gα15
T4 construct: expressed in transfected cells
T4 sequence (Q9NYV7 1-291): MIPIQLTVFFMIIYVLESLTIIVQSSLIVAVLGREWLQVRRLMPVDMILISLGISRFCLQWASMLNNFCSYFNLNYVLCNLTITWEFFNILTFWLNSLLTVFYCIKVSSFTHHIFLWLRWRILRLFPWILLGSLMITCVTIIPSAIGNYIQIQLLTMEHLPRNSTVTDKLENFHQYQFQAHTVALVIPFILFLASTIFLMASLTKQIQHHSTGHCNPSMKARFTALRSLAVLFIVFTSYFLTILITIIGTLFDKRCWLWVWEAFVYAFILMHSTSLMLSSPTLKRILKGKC
Method: as §1, §2, §3, §4, §5

TAS2R48 = molecular target: T5, TAS2R48 (Homo sapiens, UniProt P59542); test: Calcium fluorescence functional assay, TAS2R48 cell line; conditions: 20 mM tastant; cell line expressing human TAS2R48 and mouse Gα15
T5 construct: expressed in transfected cells
T5 sequence (P59542 1-299): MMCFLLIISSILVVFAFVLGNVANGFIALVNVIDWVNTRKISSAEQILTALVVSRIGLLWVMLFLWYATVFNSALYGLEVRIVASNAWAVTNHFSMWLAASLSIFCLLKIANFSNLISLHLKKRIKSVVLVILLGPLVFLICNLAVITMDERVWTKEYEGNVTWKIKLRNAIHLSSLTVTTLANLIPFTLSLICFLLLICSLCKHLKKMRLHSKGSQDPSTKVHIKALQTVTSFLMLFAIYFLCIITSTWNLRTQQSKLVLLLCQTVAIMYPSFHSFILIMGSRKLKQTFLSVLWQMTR
Method: as §1, §2, §3, §4, §5

TAS2R7 = molecular target: T6, TAS2R7 (Homo sapiens, UniProt Q9NYW3); test: Calcium fluorescence functional assay, TAS2R7 cell line; conditions: 20 mM tastant; cell line expressing human TAS2R7 and mouse Gα15
T6 construct: expressed in transfected cells
T6 sequence (Q9NYW3 1-318): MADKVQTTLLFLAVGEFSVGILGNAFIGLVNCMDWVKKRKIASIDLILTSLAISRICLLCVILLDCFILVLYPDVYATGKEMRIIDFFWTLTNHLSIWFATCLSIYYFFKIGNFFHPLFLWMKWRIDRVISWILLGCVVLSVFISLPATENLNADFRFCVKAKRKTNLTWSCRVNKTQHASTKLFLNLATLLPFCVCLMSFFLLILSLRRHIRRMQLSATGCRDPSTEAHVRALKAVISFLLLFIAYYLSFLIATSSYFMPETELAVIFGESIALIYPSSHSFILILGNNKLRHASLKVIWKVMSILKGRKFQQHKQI
Method: as §1, §2, §3, §4, §5

Row | SMILES | TAS2R44 bitter taste receptor activity (changes in intracellular calcium) (TAS2R44) | TAS2R55 bitter taste receptor activity (changes in intracellular calcium) (TAS2R55) | TAS2R4 bitter taste receptor activity (changes in intracellular calcium) (TAS2R4) | TAS2R16 bitter taste receptor activity (changes in intracellular calcium) (TAS2R16) | TAS2R48 bitter taste receptor activity (changes in intracellular calcium) (TAS2R48) | TAS2R7 bitter taste receptor activity (changes in intracellular calcium) (TAS2R7) | EC50 (TAS2R44; increasing concentrations of KCl, TAS2R44 cell line (FIG. 3), read-out: EC50 value, activation of TAS2R44) [mM] | EC50 (TAS2R4; increasing concentrations of KCl, TAS2R4 cell line (FIG. 3), read-out: EC50 value, activation of TAS2R4) [mM]
1 | CC1=CC(=O)NS(=O)(=O)O1 [Acesulfame K] | induced | did not induce | induced | induced | did not induce | did not induce |  | 
2 | [Cl-].[K+] [KCl, potassium chloride] | induced | did not induce | induced | did not induce | did not induce | did not induce | 5 to 15 | 5 to 15
3 | CC(O)C(=O)[O-].[K+] (centres unmarked) [Potassium lactate, potassium lactate] | induced | did not induce | induced | did not induce | did not induce | did not induce |  | 
